The values below are quoted from earlier work in patent publication US6863905B1, “Enhanced iodine treatment of drinking water” (Shanbrom Technologies, LLC, priority 2002, dated 2005).

Each structure is given as a SMILES string. ≈ marks a conversion by molar mass, not a printed value.

The conditions of this series: at 20° C.

As to `II` [iodine], the solubility in water is 300 µg/mL (≈ 1180 µM).
